In the NIST ThermoML archive (doi:10.1021/je060179e):
± gives the expanded uncertainty stated by the source.

Test: xn = mol fraction of the nth substance listed
Conditions: for mass density: 101 kPa, Liquid

CCCCO [butan-1-ol] + CCCCCCC
surface tension liquid-gas (288.15 K, x2 = 0.0498): 24.31 ± 0.29 mN/m | surface tension liquid-gas (288.15 K, x2 = 0.1007): 23.81 ± 0.29 mN/m | surface tension liquid-gas (288.15 K, x2 = 0.2005): 22.99 ± 0.28 mN/m | surface tension liquid-gas (288.15 K, x2 = 0.3043): 22.37 ± 0.28 mN/m | surface tension liquid-gas (288.15 K, x2 = 0.4058): 21.88 ± 0.28 mN/m | surface tension liquid-gas (288.15 K, x2 = 0.5054): 21.56 ± 0.27 mN/m | surface tension liquid-gas (288.15 K, x2 = 0.599): 21.38 ± 0.27 mN/m | surface tension liquid-gas (288.15 K, x2 = 0.7072): 21.17 ± 0.27 mN/m | surface tension liquid-gas (288.15 K, x2 = 0.8008): 21.03 ± 0.27 mN/m | surface tension liquid-gas (288.15 K, x2 = 0.8982): 20.94 ± 0.27 mN/m | surface tension liquid-gas (288.15 K, x2 = 0.9532): 20.87 ± 0.27 mN/m | mass density (288.15 K, x2 = 0.051): 803.35 ± 0.44 kg/m3 | mass density (288.15 K, x2 = 0.0998): 794.33 ± 0.46 kg/m3 | mass density (288.15 K, x2 = 0.2067): 776.12 ± 0.49 kg/m3 | mass density (288.15 K, x2 = 0.3087): 760.61 ± 0.51 kg/m3 | mass density (288.15 K, x2 = 0.4059): 747.14 ± 0.53 kg/m3 | mass density (288.15 K, x2 = 0.5052): 734.63 ± 0.56 kg/m3 | mass density (288.15 K, x2 = 0.5986): 724.01 ± 0.57 kg/m3 | mass density (288.15 K, x2 = 0.7259): 710.89 ± 0.6 kg/m3 | mass density (288.15 K, x2 = 0.8066): 703.39 ± 0.61 kg/m3 | mass density (288.15 K, x2 = 0.908): 694.8 ± 0.62 kg/m3 | mass density (288.15 K, x2 = 0.9523): 691.35 ± 0.63 kg/m3 | surface tension liquid-gas (293.15 K, x2 = 0.0503): 23.76 ± 0.28 mN/m | surface tension liquid-gas (293.15 K, x2 = 0.1008): 23.26 ± 0.28 mN/m | surface tension liquid-gas (293.15 K, x2 = 0.201): 22.44 ± 0.28 mN/m | surface tension liquid-gas (293.15 K, x2 = 0.2986): 21.85 ± 0.28 mN/m | surface tension liquid-gas (293.15 K, x2 = 0.4002): 21.37 ± 0.27 mN/m | surface tension liquid-gas (293.15 K, x2 = 0.5009): 21.01 ± 0.27 mN/m | surface tension liquid-gas (293.15 K, x2 = 0.5998): 20.79 ± 0.27 mN/m | surface tension liquid-gas (293.15 K, x2 = 0.7034): 20.62 ± 0.27 mN/m | surface tension liquid-gas (293.15 K, x2 = 0.7971): 20.51 ± 0.27 mN/m | surface tension liquid-gas (293.15 K, x2 = 0.902): 20.37 ± 0.27 mN/m | surface tension liquid-gas (293.15 K, x2 = 0.9511): 20.33 ± 0.27 mN/m | mass density (293.15 K, x2 = 0.051): 799.52 ± 0.45 kg/m3 | mass density (293.15 K, x2 = 0.0998): 790.46 ± 0.46 kg/m3 | mass density (293.15 K, x2 = 0.2067): 772.16 ± 0.49 kg/m3 | mass density (293.15 K, x2 = 0.3087): 756.57 ± 0.52 kg/m3 | mass density (293.15 K, x2 = 0.4059): 743 ± 0.54 kg/m3 | mass density (293.15 K, x2 = 0.5052): 730.46 ± 0.56 kg/m3 | mass density (293.15 K, x2 = 0.5986): 719.8 ± 0.58 kg/m3 | mass density (293.15 K, x2 = 0.7259): 706.65 ± 0.6 kg/m3 | mass density (293.15 K, x2 = 0.8066): 699.15 ± 0.62 kg/m3 | mass density (293.15 K, x2 = 0.908): 690.55 ± 0.63 kg/m3 | mass density (293.15 K, x2 = 0.9523): 687.11 ± 0.64 kg/m3 | surface tension liquid-gas (298.15 K, x2 = 0.056): 23.17 ± 0.28 mN/m | surface tension liquid-gas (298.15 K, x2 = 0.0937): 22.75 ± 0.28 mN/m | surface tension liquid-gas (298.15 K, x2 = 0.2085): 21.94 ± 0.28 mN/m | surface tension liquid-gas (298.15 K, x2 = 0.302): 21.35 ± 0.27 mN/m | surface tension liquid-gas (298.15 K, x2 = 0.3975): 20.86 ± 0.27 mN/m | surface tension liquid-gas (298.15 K, x2 = 0.5054): 20.44 ± 0.27 mN/m | surface tension liquid-gas (298.15 K, x2 = 0.6086): 20.17 ± 0.27 mN/m | surface tension liquid-gas (298.15 K, x2 = 0.806): 19.99 ± 0.27 mN/m | surface tension liquid-gas (298.15 K, x2 = 0.9082): 19.85 ± 0.27 mN/m | surface tension liquid-gas (298.15 K, x2 = 0.9502): 19.81 ± 0.27 mN/m | mass density (298.15 K, x2 = 0.051): 795.66 ± 0.45 kg/m3 | mass density (298.15 K, x2 = 0.0998): 786.55 ± 0.47 kg/m3 | mass density (298.15 K, x2 = 0.2067): 768.15 ± 0.5 kg/m3 | mass density (298.15 K, x2 = 0.3087): 752.48 ± 0.52 kg/m3 | mass density (298.15 K, x2 = 0.4059): 738.85 ± 0.55 kg/m3 | mass density (298.15 K, x2 = 0.5052): 726.25 ± 0.57 kg/m3 | mass density (298.15 K, x2 = 0.5986): 715.56 ± 0.59 kg/m3 | mass density (298.15 K, x2 = 0.7259): 702.38 ± 0.61 kg/m3 | mass density (298.15 K, x2 = 0.8066): 694.86 ± 0.62 kg/m3 | mass density (298.15 K, x2 = 0.908): 686.27 ± 0.64 kg/m3 | mass density (298.15 K, x2 = 0.9523): 682.83 ± 0.64 kg/m3 | surface tension liquid-gas (303.15 K, x2 = 0.0491): 22.62 ± 0.28 mN/m | surface tension liquid-gas (303.15 K, x2 = 0.0997): 22.16 ± 0.28 mN/m | surface tension liquid-gas (303.15 K, x2 = 0.2052): 21.41 ± 0.27 mN/m | surface tension liquid-gas (303.15 K, x2 = 0.3051): 20.81 ± 0.27 mN/m | surface tension liquid-gas (303.15 K, x2 = 0.4003): 20.3 ± 0.27 mN/m | surface tension liquid-gas (303.15 K, x2 = 0.504): 19.92 ± 0.27 mN/m | surface tension liquid-gas (303.15 K, x2 = 0.5966): 19.72 ± 0.26 mN/m | surface tension liquid-gas (303.15 K, x2 = 0.7052): 19.48 ± 0.26 mN/m | surface tension liquid-gas (303.15 K, x2 = 0.8014): 19.39 ± 0.26 mN/m | surface tension liquid-gas (303.15 K, x2 = 0.9024): 19.3 ± 0.26 mN/m | surface tension liquid-gas (303.15 K, x2 = 0.9507): 19.27 ± 0.26 mN/m | mass density (303.15 K, x2 = 0.051): 791.77 ± 0.46 kg/m3 | mass density (303.15 K, x2 = 0.0998): 782.61 ± 0.47 kg/m3 | mass density (303.15 K, x2 = 0.2067): 764.11 ± 0.5 kg/m3 | mass density (303.15 K, x2 = 0.3087): 748.35 ± 0.53 kg/m3 | mass density (303.15 K, x2 = 0.4059): 734.65 ± 0.55 kg/m3 | mass density (303.15 K, x2 = 0.5052): 722 ± 0.57 kg/m3 | mass density (303.15 K, x2 = 0.5986): 711.28 ± 0.59 kg/m3 | mass density (303.15 K, x2 = 0.7259): 698.07 ± 0.61 kg/m3 | mass density (303.15 K, x2 = 0.8066): 690.54 ± 0.63 kg/m3 | mass density (303.15 K, x2 = 0.908): 681.95 ± 0.64 kg/m3 | mass density (303.15 K, x2 = 0.9523): 678.52 ± 0.65 kg/m3 | surface tension liquid-gas (308.15 K, x2 = 0.0507): 22.35 ± 0.28 mN/m | surface tension liquid-gas (308.15 K, x2 = 0.1017): 21.89 ± 0.27 mN/m | surface tension liquid-gas (308.15 K, x2 = 0.2054): 20.98 ± 0.27 mN/m | surface tension liquid-gas (308.15 K, x2 = 0.3025): 20.33 ± 0.27 mN/m | surface tension liquid-gas (308.15 K, x2 = 0.4017): 19.87 ± 0.26 mN/m | surface tension liquid-gas (308.15 K, x2 = 0.5052): 19.53 ± 0.26 mN/m | surface tension liquid-gas (308.15 K, x2 = 0.6007): 19.28 ± 0.26 mN/m | surface tension liquid-gas (308.15 K, x2 = 0.7306): 19.2 ± 0.26 mN/m | surface tension liquid-gas (308.15 K, x2 = 0.8079): 19.1 ± 0.26 mN/m | surface tension liquid-gas (308.15 K, x2 = 0.9086): 18.99 ± 0.26 mN/m | surface tension liquid-gas (308.15 K, x2 = 0.9532): 18.9 ± 0.26 mN/m | mass density (308.15 K, x2 = 0.051): 787.85 ± 0.47 kg/m3 | mass density (308.15 K, x2 = 0.0998): 778.63 ± 0.48 kg/m3 | mass density (308.15 K, x2 = 0.2067): 760.04 ± 0.51 kg/m3 | mass density (308.15 K, x2 = 0.3087): 744.18 ± 0.54 kg/m3 | mass density (308.15 K, x2 = 0.4059): 730.42 ± 0.56 kg/m3 | mass density (308.15 K, x2 = 0.5052): 717.71 ± 0.58 kg/m3 | mass density (308.15 K, x2 = 0.5986): 706.95 ± 0.6 kg/m3 | mass density (308.15 K, x2 = 0.7259): 693.71 ± 0.62 kg/m3 | mass density (308.15 K, x2 = 0.8066): 686.18 ± 0.63 kg/m3 | mass density (308.15 K, x2 = 0.908): 677.61 ± 0.65 kg/m3 | mass density (308.15 K, x2 = 0.9523): 674.17 ± 0.66 kg/m3
